Read-outs that look alike come from different tables or passages of the source.
Legend:
[1] = UV filter solubility in the emollients; type: physicochemical; conditions: maximum soluble amount of ethylhexyl triazone (Uvinul T 150) in the emollient at 22 °C
Excerpt: This operation was repeated until the maximum soluble amount of the UV filter was exceeded. At higher concentrations, often a longer stirring time of several hours is necessary for complete dissolution. When in this way the maximum concentration had been determined approximately, for fine determination the concentration range was repeated around this maximum concentration with smaller initial weighed amounts of the UV filter.

Solubility in wt % in the test emollients (test emollient: Isohexadecane)	Solubility in wt % in the test emollients (test emollient: Mineral oil) [% wt %]	Solubility in wt % in the test emollients (test emollient: Octyldodecanol)	Solubility in wt % in the test emollients (test emollient: Oleyl erucate) [% wt %]	UV filter solubility: Ethylhexyl triazone [1] [%]	Molecule
at 75% solid,	<5	at 75% solid,	<50		CCCCCCCC(=O)OCC(O)CO (centres unmarked) [Glyceryl monocaprylate]
				7.0	PPG-15 stearyl ether
